Data published in BindingDB's records for doi:10.1021/jm00017a004 (Centre De Recherche Pierre Fabre, 1995).

Target: Squalene monooxygenase (Sus scrofa)
Assay: In vitro inhibitory activity against pig liver microsomal squalene epoxidase

| IC50 [nM] | Structure (SMILES) |
| --- | --- |
| 5000 | CCN(C/C=C/C#CC(C)(C)C)Cc1cccc(OC[Si](C)(C)c2ccc(C(=O)C(F)(F)F)cc2)c1 [1-{4-[(3-{[((E)-6,6-Dimethyl-hept-2-en-4-ynyl)-ethyl-amino]-methyl}-phenoxymethyl)-dimethyl-silanyl]-phenyl}-2,2,2-trifluoro-ethanone] |
| 100 | CCN(C/C=C/C#CC(C)(C)C)Cc1cccc(OC[Si](C)(C)c2ccc(C=O)cc2)c1 [4-[(3-{[((E)-6,6-Dimethyl-hept-2-en-4-ynyl)-ethyl-amino]-methyl}-phenoxymethyl)-dimethyl-silanyl]-benzaldehyde] |
| 5000 | CCN(C/C=C/C#CC(C)(C)C)Cc1cccc(OC[Si](C)(C)c2ccc(C(N)=O)cc2)c1 [4-[(3-{[((E)-6,6-Dimethyl-hept-2-en-4-ynyl)-ethyl-amino]-methyl}-phenoxymethyl)-dimethyl-silanyl]-benzamide] |
| 8000 | CCN(C/C=C/C#CC(C)(C)C)Cc1cccc(OC[Si](C)(C)c2ccc(S)cc2)c1 [4-[(3-{[((E)-6,6-Dimethyl-hept-2-en-4-ynyl)-ethyl-amino]-methyl}-phenoxymethyl)-dimethyl-silanyl]-benzenethiol] |
| 8000 | CCN(C/C=C/C#CC(C)(C)C)Cc1cccc(OC[Si](C)(C)c2ccc(O)cc2)c1 [4-[(3-{[((E)-6,6-Dimethyl-hept-2-en-4-ynyl)-ethyl-amino]-methyl}-phenoxymethyl)-dimethyl-silanyl]-phenol] |
| 210 | CCN(C/C=C/C#CC(C)(C)C)Cc1cccc(OC[Si](C)(C)c2ccc(Br)cc2)c1 [(3-{[(4-Bromo-phenyl)-dimethyl-silanyl]-methoxy}-benzyl)-((E)-6,6-dimethyl-hept-2-en-4-ynyl)-ethyl-amine] |
| 400 | CCN(C/C=C/C#CC(C)(C)C)Cc1cccc(OC[Si](C)(C)c2ccc(Cl)cc2)c1 [(3-{[(4-Chloro-phenyl)-dimethyl-silanyl]-methoxy}-benzyl)-((E)-6,6-dimethyl-hept-2-en-4-ynyl)-ethyl-amine] |
| 10000 | CCN(C/C=C/C#CC(C)(C)C)Cc1cccc(OC[Si](C)(C)c2ccccc2-c2ccsc2)c1 [((E)-6,6-Dimethyl-hept-2-en-4-ynyl)-(3-{[dimethyl-(2-thiophen-3-yl-phenyl)-silanyl]-methoxy}-benzyl)-ethyl-amine] |
| 70 | CCN(C/C=C/C#CC(C)(C)C)Cc1cccc(OC[Si](C)(C)c2ccccc2C(F)(F)F)c1 [((E)-6,6-Dimethyl-hept-2-en-4-ynyl)-(3-{[dimethyl-(2-trifluoromethyl-phenyl)-silanyl]-methoxy}-benzyl)-ethyl-amine] |
| 70 | C=Cc1ccc([Si](C)(C)COc2cccc(CN(CC)C/C=C/C#CC(C)(C)C)c2)cc1 [((E)-6,6-Dimethyl-hept-2-en-4-ynyl)-(3-{[dimethyl-(4-vinyl-phenyl)-silanyl]-methoxy}-benzyl)-ethyl-amine] |
| 60 | CCN(C/C=C/C#CC(C)(C)C)Cc1cccc(OC[Si](C)(C)c2ccc(F)cc2)c1 [((E)-6,6-Dimethyl-hept-2-en-4-ynyl)-ethyl-(3-{[(4-fluoro-phenyl)-dimethyl-silanyl]-methoxy}-benzyl)-amine] |
| 870 | CCN(C/C=C/C#CC(C)(C)C)Cc1cccc(OC[Si](C)(C)c2ccc(OC)cc2)c1 [((E)-6,6-Dimethyl-hept-2-en-4-ynyl)-ethyl-(3-{[(4-methoxy-phenyl)-dimethyl-silanyl]-methoxy}-benzyl)-amine] |
| 3000 | CCN(C/C=C/C#CC(C)(C)C)Cc1cccc(OC[Si](C)(C)c2cccc(C)c2)c1 [((E)-6,6-Dimethyl-hept-2-en-4-ynyl)-{3-[(dimethyl-m-tolyl-silanyl)-methoxy]-benzyl}-ethyl-amine] |
| 120 | CCN(C/C=C/C#CC(C)(C)C)Cc1cccc(OC[Si](C)(C)c2ccc(C)cc2)c1 [((E)-6,6-Dimethyl-hept-2-en-4-ynyl)-{3-[(dimethyl-p-tolyl-silanyl)-methoxy]-benzyl}-ethyl-amine] |
| > 10000 | CCN(C/C=C/C#CC(C)(C)C)Cc1cccc(OC[Si](C)(C)CCc2ccccc2)c1 [((E)-6,6-Dimethyl-hept-2-en-4-ynyl)-{3-[(dimethyl-phenethyl-silanyl)-methoxy]-benzyl}-ethyl-amine] |
| 130 | CCN(C/C=C/C#CC(C)(C)C)Cc1cccc(OC[Si](C)(C)Cc2ccccc2)c1 [{3-[(Benzyl-dimethyl-silanyl)-methoxy]-benzyl}-((E)-6,6-dimethyl-hept-2-en-4-ynyl)-ethyl-amine] |
| 20000 | CCN(C/C=C/C#CC(C)(C)C)Cc1cccc(OC[Si](C)(C)C2CCCCC2)c1 [{3-[(Cyclohexyl-dimethyl-silanyl)-methoxy]-benzyl}-((E)-6,6-dimethyl-hept-2-en-4-ynyl)-ethyl-amine] |

| Structure (SMILES) | IC50 [nM] |
| --- | --- |
| CCN(CC#CC#CC(C)(C)OC)Cc1cccc(OC[Si](C)(C)c2ccccc2C)c1 [{3-[(Dimethyl-o-tolyl-silanyl)-methoxy]-benzyl}-ethyl-(6-methoxy-6-methyl-hepta-2,4-diynyl)-amine] | 70 |
